Assay results published in US20240209001A1, “HETEROCYCLIC DERIVATIVES AS JANUS KINASE INHIBITORS” (CHIESI FARMACEUTICI S.P. A., priority 2021, published 2024).

Columns and labels:
JAK 1 = JAK 1 (Homo sapiens (Human), UniProt P23458); assay: Biochemical potency on JAK1, TR-FRET LANCE Ultra kinase assay (compounds 1-92); conditions: ATP at Km, read-out: JAK1 inhibitory activity (pIC50 class) (converted)
In short: (§1)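 TR-FRET (LANCE Ultra) phosphorylation of ULight-JAK-1 peptide, ATP at Km: JAK1/JAK2/JAK3/TYK2 peptide 30/50/20/10 nM, ATP 20/0.7/0.2/12 μM, enzyme 0.15/0.083/0.025/0.144 ng/μL. 11-point 5-fold series from 20 μM; 1.5 h RT, EDTA stop, Eu-anti-pTyr detection 1 h; IC50 by variable-slope fit.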

JAK 2 = JAK 2 (Homo sapiens (Human), UniProt O60674); assay: Biochemical potency on JAK2, TR-FRET LANCE Ultra kinase assay (compounds 1-92); conditions: ATP at Km, read-out: JAK2 inhibitory activity (pIC50 class) (converted)
In short: as §1

JAK 3 = JAK 3 (Homo sapiens (Human), UniProt P52333); assay: Biochemical potency on JAK3, TR-FRET LANCE Ultra kinase assay (compounds 1-92); conditions: ATP at Km, read-out: JAK3 inhibitory activity (pIC50 class) (converted)
In short: as §1

TYK2 = TYK2 (Homo sapiens (Human), UniProt P29597); assay: Biochemical potency on Tyk2, TR-FRET LANCE Ultra kinase assay (compounds 1-92); conditions: ATP at Km, read-out: Tyk2 inhibitory activity (pIC50 class) (converted)
In short: as §1

TYK2, sequence (P29597 whole entry): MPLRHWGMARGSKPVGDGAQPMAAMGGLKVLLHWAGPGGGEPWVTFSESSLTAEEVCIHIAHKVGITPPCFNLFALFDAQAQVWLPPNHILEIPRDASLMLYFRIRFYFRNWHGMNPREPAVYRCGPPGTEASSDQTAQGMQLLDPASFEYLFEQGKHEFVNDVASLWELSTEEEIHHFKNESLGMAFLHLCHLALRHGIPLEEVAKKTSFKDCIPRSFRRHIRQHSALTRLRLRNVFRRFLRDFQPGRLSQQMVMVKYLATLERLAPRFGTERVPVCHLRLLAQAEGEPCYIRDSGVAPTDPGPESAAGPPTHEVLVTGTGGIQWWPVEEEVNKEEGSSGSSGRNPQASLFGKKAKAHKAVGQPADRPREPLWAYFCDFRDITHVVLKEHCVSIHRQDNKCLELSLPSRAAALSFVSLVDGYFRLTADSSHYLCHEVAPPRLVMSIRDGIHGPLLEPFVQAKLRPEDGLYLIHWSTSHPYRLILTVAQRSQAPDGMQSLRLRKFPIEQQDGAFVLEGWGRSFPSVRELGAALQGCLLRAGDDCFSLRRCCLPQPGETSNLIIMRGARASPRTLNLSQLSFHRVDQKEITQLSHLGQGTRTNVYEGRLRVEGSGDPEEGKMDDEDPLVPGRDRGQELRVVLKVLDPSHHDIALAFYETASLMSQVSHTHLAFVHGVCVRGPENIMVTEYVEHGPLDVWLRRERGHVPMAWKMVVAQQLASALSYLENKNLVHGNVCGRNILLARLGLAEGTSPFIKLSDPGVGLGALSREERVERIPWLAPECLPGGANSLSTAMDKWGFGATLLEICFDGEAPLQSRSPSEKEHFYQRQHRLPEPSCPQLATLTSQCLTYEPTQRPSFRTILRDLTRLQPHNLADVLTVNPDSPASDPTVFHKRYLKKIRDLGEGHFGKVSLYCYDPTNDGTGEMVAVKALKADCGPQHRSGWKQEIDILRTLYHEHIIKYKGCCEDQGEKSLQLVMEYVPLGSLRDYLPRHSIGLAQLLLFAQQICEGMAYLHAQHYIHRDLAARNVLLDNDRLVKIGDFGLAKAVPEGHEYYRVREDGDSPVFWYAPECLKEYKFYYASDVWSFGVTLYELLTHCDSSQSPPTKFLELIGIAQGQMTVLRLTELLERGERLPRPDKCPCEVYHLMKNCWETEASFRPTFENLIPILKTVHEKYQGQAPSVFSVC
JAK 1, sequence (P23458 whole entry): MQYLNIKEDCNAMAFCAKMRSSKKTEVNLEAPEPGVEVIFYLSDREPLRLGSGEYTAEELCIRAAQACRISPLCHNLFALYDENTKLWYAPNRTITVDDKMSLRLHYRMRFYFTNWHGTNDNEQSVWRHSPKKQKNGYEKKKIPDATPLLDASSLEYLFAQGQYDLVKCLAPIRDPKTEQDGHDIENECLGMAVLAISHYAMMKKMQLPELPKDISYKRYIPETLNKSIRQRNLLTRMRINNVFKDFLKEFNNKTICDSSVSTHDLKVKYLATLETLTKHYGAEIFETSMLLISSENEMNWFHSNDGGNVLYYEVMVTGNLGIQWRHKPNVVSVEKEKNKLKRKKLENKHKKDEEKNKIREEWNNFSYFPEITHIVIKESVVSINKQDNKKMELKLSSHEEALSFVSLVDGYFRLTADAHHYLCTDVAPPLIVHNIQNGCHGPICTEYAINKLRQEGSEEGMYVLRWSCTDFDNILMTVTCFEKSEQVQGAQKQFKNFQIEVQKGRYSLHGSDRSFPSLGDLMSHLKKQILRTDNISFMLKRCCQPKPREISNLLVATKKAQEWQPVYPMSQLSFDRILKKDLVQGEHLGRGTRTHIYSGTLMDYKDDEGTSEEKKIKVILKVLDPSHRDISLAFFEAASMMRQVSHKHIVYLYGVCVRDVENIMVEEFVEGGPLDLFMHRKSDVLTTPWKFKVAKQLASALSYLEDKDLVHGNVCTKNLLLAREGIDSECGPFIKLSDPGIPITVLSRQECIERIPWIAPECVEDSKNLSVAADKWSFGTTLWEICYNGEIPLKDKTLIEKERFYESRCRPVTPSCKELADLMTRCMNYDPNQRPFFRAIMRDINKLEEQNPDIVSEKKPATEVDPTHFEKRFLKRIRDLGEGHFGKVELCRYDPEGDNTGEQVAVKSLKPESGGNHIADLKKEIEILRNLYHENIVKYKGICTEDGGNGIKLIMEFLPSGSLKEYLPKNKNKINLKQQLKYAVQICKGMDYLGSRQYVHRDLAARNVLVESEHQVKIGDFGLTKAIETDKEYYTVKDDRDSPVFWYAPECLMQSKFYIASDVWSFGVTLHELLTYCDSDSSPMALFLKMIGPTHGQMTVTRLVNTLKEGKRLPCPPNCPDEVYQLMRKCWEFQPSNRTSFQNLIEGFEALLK
JAK 3, sequence (P52333 whole entry): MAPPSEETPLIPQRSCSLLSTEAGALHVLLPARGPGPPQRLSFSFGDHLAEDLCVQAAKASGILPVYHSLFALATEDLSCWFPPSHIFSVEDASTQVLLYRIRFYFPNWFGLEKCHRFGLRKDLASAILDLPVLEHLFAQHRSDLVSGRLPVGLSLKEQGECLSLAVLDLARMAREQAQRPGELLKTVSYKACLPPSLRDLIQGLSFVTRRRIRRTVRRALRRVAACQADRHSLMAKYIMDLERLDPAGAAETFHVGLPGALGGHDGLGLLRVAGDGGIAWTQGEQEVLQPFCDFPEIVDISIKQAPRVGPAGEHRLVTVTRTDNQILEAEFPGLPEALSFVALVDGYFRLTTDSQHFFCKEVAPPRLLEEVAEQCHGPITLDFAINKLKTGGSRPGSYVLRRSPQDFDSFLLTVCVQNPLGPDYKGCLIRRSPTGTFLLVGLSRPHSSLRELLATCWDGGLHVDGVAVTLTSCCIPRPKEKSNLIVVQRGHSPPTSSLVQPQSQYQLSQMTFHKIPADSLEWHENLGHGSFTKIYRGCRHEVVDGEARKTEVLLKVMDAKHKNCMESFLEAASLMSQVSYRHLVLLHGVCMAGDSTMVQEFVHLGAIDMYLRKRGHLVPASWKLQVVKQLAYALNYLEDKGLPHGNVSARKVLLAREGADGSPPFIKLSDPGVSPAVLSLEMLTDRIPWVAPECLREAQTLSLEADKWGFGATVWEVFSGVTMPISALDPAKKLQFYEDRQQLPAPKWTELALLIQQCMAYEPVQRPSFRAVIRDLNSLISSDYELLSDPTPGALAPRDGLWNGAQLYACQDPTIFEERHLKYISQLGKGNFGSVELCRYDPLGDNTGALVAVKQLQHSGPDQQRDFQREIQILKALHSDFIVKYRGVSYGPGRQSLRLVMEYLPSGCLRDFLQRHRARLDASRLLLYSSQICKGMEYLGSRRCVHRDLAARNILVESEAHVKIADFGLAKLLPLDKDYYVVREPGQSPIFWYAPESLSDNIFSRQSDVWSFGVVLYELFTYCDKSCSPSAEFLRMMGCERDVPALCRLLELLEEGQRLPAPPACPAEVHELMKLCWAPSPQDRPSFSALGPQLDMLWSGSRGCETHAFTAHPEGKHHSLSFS
JAK 2, sequence (O60674 whole entry): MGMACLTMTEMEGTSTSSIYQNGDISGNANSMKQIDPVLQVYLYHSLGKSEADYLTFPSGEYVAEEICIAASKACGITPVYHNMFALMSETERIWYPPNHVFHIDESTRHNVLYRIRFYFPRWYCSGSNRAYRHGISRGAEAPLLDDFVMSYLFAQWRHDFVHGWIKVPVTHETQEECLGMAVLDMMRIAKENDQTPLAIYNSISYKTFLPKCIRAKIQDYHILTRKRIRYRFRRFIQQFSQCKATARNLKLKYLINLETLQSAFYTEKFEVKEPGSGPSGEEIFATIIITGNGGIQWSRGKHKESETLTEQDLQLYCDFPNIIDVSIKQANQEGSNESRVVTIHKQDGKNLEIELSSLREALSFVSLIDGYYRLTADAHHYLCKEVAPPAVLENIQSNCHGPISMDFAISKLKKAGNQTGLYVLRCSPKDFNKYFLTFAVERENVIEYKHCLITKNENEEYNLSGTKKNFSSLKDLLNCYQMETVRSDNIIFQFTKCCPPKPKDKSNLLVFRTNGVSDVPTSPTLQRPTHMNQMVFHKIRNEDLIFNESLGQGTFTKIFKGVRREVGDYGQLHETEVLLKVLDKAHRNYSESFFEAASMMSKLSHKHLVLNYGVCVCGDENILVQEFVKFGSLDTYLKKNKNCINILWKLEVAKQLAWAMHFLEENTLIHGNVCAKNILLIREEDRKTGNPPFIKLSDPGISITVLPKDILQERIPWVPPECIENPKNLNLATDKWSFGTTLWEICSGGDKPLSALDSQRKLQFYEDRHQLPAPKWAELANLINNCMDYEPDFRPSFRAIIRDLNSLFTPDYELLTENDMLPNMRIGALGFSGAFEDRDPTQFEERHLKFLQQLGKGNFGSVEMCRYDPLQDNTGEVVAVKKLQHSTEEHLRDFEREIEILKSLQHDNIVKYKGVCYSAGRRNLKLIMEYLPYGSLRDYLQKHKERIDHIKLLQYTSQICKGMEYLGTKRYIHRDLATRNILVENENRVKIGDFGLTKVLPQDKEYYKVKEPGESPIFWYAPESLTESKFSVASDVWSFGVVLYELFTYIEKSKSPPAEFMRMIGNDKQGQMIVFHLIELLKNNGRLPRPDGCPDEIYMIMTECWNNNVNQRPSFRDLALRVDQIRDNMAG

| SMILES | IC50 (JAK 1) [nM] | IC50 (JAK 2) [nM] | IC50 (JAK 3) [nM] | IC50 (TYK2) [nM] |
| --- | --- | --- | --- | --- |
| COc1cc(CNS(C)(=O)=O)ccc1-n1nc(C)c2cnc(-c3cnn4cccnc34)cc21 [Example 63, N-(3-methoxy-4-(3-methyl-6-(pyrazolo[1,5-a]pyrimidin-3-yl)-1H-pyrazolo[4,3-c]pyridin-1-yl)benzyl)methanesulfonamide] | ≤ 5.01 | ≤ 5.01 | ≤ 5.01 | 5.01 to 50.1 |
| COc1cc(CNS(=O)(=O)C2CC2)ccc1-n1nc(C)c2cnc(-c3cnn4cccnc34)cc21 [Example 64, N-(3-methoxy-4-(3-methyl-6-(pyrazolo[1,5-a]pyrimidin-3-yl)-1H-pyrazolo[4,3-c]pyridin-1-yl)benzyl)cyclopropanesulfonamide] | ≤ 5.01 | ≤ 5.01 | ≤ 5.01 | 5.01 to 50.1 |
| COc1cc(CN(C)S(C)(=O)=O)ccc1-n1nc(C)c2cnc(-c3cnn4cccnc34)cc21 [Example 65, N-(3-methoxy-4-(3-methyl-6-(pyrazolo[1,5-a]pyrimidin-3-yl)-1H-pyrazolo[4,3-c]pyridin-1-yl)benzyl)-N-methylmethanesulfonamide] | ≤ 5.01 | ≤ 5.01 | ≤ 5.01 | 5.01 to 50.1 |
| COc1cc(CO)ccc1-n1nc(C)c2cnc(-c3cnn4cccnc34)cc21 [Example 66, (3-methoxy-4-(3-methyl-6-(pyrazolo[1,5-a]pyrimidin-3-yl)-1H-pyrazolo[4,3-c]pyridin-1-yl)phenyl)methanol] | 5.01 to 50.1 | 5.01 to 50.1 | 5.01 to 50.1 | > 50.1 |
| COc1cc(CN)ccc1-n1nc(C)c2cnc(-c3cnn4cccnc34)cc21 [Example 67, (3-methoxy-4-(3-methyl-6-(pyrazolo[1,5-a]pyrimidin-3-yl)-1H-pyrazolo[4,3-c]pyridin-1-yl)phenyl)methanamine] | > 50.1 | > 50.1 | > 50.1 | > 50.1 |
| COc1cc(CNS(=O)(=O)CC#N)ccc1-n1nc(C)c2cnc(-c3cnn4cccnc34)cc21 [Example 68, 1-cyano-N-(3-methoxy-4-(3-methyl-6-(pyrazolo[1,5-a]pyrimidin-3-yl)-1H-pyrazolo[4,3-c]pyridin-1-yl)benzyl)methanesulfonamide] | ≤ 5.01 | ≤ 5.01 | ≤ 5.01 | 5.01 to 50.1 |
| COC(=O)NCc1ccc(-n2nc(C)c3cnc(-c4cnn5cccnc45)cc32)c(OC)c1 [Example 69, methyl (3-methoxy-4-(3-methyl-6-(pyrazolo[1,5-a]pyrimidin-3-yl)-1H-pyrazolo[4,3-c]pyridin-1-yl)benzyl)carbamate] | > 50.1 | 5.01 to 50.1 | 5.01 to 50.1 | > 50.1 |
| COc1cc(CNC(C)=O)ccc1-n1nc(C)c2cnc(-c3cnn4cccnc34)cc21 [Example 70, N-(3-methoxy-4-(3-methyl-6-(pyrazolo[1,5-a]pyrimidin-3-yl)-1H-pyrazolo[4,3-c]pyridin-1-yl)benzyl)acetamide] | > 50.1 | > 50.1 | > 50.1 | > 50.1 |
| CNC(=O)NCc1ccc(-n2nc(C)c3cnc(-c4cnn5cccnc45)cc32)c(OC)c1 [Example 71, 1-(3-methoxy-4-(3-methyl-6-(pyrazolo[1,5-a]pyrimidin-3-yl)-1H-pyrazolo[4,3-c]pyridin-1-yl)benzyl)-3-methylurea] | 5.01 to 50.1 | 5.01 to 50.1 | 5.01 to 50.1 | > 50.1 |
| COc1cc(CNC(=O)Nc2ccccc2)ccc1-n1nc(C)c2cnc(-c3cnn4cccnc34)cc21 [Example 72, 1-(3-methoxy-4-(3-methyl-6-(pyrazolo[1,5-a]pyrimidin-3-yl)-1H-pyrazolo[4,3-c]pyridin-1-yl)benzyl)-3-phenylurea] | > 50.1 | 5.01 to 50.1 | 5.01 to 50.1 | > 50.1 |
| COc1cc(NS(=O)(=O)CC(F)F)ccc1-n1nc(C)c2cnc(-c3cnn4cccnc34)cc21 [Example 73, 2,2-difluoro-N-(3-methoxy-4-(3-methyl-6-(pyrazolo[1,5-a]pyrimidin-3-yl)-1H-pyrazolo[4,3-c]pyridin-1-yl)phenyl)ethane-1-sulfonamide] | ≤ 5.01 | 5.01 to 50.1 | 5.01 to 50.1 | 5.01 to 50.1 |
| COc1cc(NC(=O)c2ccccc2)ccc1-n1nc(C)c2cnc(-c3cnn4cccnc34)cc21 [Example 74, N-(3-methoxy-4-(3-methyl-6-(pyrazolo[1,5-a]pyrimidin-3-yl)-1H-pyrazolo[4,3-c]pyridin-1-yl)phenyl)benzamide] | 5.01 to 50.1 | 5.01 to 50.1 | 5.01 to 50.1 | > 50.1 |
| COc1cc(NC(=O)c2ccccc2)ccc1-n1nc(NCCN(C)C)c2cnc(-c3cnn4cccnc34)cc21 [Example 75, N-(4-(3-((2-(dimethylamino)ethyl)amino)-6-(pyrazolo[1,5-a]pyrimidin-3-yl)-1H-pyrazolo[4,3-c]pyridin-1-yl)-3-methoxyphenyl)benzamide] | 5.01 to 50.1 | 5.01 to 50.1 | 5.01 to 50.1 | > 50.1 |
| COc1cc(NS(C)(=O)=O)ccc1-n1nc(NCCN2CCOCC2)c2cnc(-c3cnc4cccnn34)cc21 [Example 76, N-(4-(6-(imidazo[1,2-b]pyridazin-3-yl)-3-((2-morpholinoethyl)amino)-1H-pyrazolo[4,3-c]pyridin-1-yl)-3-methoxyphenyl)methanesulfonamide] | ≤ 5.01 | ≤ 5.01 | ≤ 5.01 | 5.01 to 50.1 |
| COc1cc(NS(C)(=O)=O)ccc1-n1nc(NCCN(C)C)c2cnc(-c3cnc4cccnn34)cc21 [Example 77, N-(4-(3-((2-(dimethylamino)ethyl)amino)-6-(imidazo[1,2-b]pyridazin-3-yl)-1H-pyrazolo[4,3-c]pyridin-1-yl)-3-methoxyphenyl)methanesulfonamide] | ≤ 5.01 | ≤ 5.01 | ≤ 5.01 | 5.01 to 50.1 |
| COc1cc(NS(=O)(=O)C2CC2)ccc1-n1nc(N[C@H]2C[C@@H](N(C)C)C2)c2cnc(-c3cnn4cccnc34)cc21 [Example 78, N-(4-(3-(((1s,3s)-3-(dimethylamino)cyclobutyl)amino)-6-(pyrazolo[1,5-a]pyrimidin-3-yl)-1H-pyrazolo[4,3-c]pyridin-1-yl)-3-methoxyphenyl)cyclopropanesulfonamide] | ≤ 5.01 | ≤ 5.01 | ≤ 5.01 | 5.01 to 50.1 |
| COc1cc(NS(C)(=O)=O)ccc1-n1nc(N)c2cnc(-c3cnn4cccnc34)cc21 [Example 79, N-(4-(3-amino-6-(pyrazolo[1,5-a]pyrimidin-3-yl)-1H-pyrazolo[4,3-c]pyridin-1-yl)-3-methoxyphenyl)methanesulfonamide] | ≤ 5.01 | ≤ 5.01 | ≤ 5.01 | 5.01 to 50.1 |
| CNCC(=O)Nc1nn(-c2ccc(NS(C)(=O)=O)cc2OC)c2cc(-c3cnn4cccnc34)ncc12 [Example 80, N-(1-(2-methoxy-4-(methylsulfonamido)phenyl)-6-(pyrazolo[1,5-a]pyrimidin-3-yl)-1H-pyrazolo[4,3-c]pyridin-3-yl)-2-(methylamino)acetamide] | ≤ 5.01 | ≤ 5.01 | ≤ 5.01 | 5.01 to 50.1 |
| COc1cc(NS(C)(=O)=O)ccc1-n1nc(NC(=O)CN2CCN(C)CC2)c2cnc(-c3cnn4cccnc34)cc21 [Example 81, N-(1-(2-methoxy-4-(methylsulfonamido)phenyl)-6-(pyrazolo[1,5-a]pyrimidin-3-yl)-1H-pyrazolo[4,3-c]pyridin-3-yl)-2-(4-methylpiperazin-1-yl)acetamide] | ≤ 5.01 | ≤ 5.01 | ≤ 5.01 | 5.01 to 50.1 |
| CCCS(=O)(=O)Nc1ccc(-n2nc(NC(=O)CCN3CCN(C)CC3)c3cnc(-c4cnn5cccnc45)cc32)c(OC)c1 [Example 82, N-(1-(2-methoxy-4-(propylsulfonamido)phenyl)-6-(pyrazolo[1,5-a]pyrimidin-3-yl)-1H-pyrazolo[4,3-c]pyridin-3-yl)-3-(4-methylpiperazin-1-yl)propanamide] | 5.01 to 50.1 | 5.01 to 50.1 | 5.01 to 50.1 | 5.01 to 50.1 |
| CCCS(=O)(=O)Nc1ccc(-n2nc(CNC)c3cnc(-c4cnn5cccnc45)cc32)c(OC)c1 [Example 83, N-(3-methoxy-4-(3-((methylamino)methyl)-6-(pyrazolo[1,5-a]pyrimidin-3-yl)-1H-pyrazolo[4,3-c]pyridin-1-yl)phenyl)propane-1-sulfonamide] | ≤ 5.01 | ≤ 5.01 | ≤ 5.01 | 5.01 to 50.1 |
| COc1cc(NS(=O)(=O)C2CC2)ccc1-n1nc(CC#N)c2cnc(-c3cnn4cccnc34)cc21 [Example 84, N-(4-(3-(cyanomethyl)-6-(pyrazolo[1,5-a]pyrimidin-3-yl)-1H-pyrazolo[4,3-c]pyridin-1-yl)-3-methoxyphenyl)cyclopropanesulfonamide] | ≤ 5.01 | ≤ 5.01 | 5.01 to 50.1 | 5.01 to 50.1 |
| COc1cc(NS(C)(=O)=O)ccc1-n1nc(C)c2cnc(Nc3ncc[nH]c3=O)cc21 [Example 85, N-(3-methoxy-4-(3-methyl-6-((3-oxo-3,4-dihydropyrazin-2-yl)amino)-1H-pyrazolo[4,3-c]pyridin-1-yl)phenyl)methanesulfonamide] | ≤ 5.01 | ≤ 5.01 | ≤ 5.01 | ≤ 5.01 |
